Reference: PubChem BioAssay (NCI)
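48-hour exposure; five concentrations; linearly interpolated endpoints. Here, GI50 denotes the concentration required for 50% inhibition of growth. TGI denotes the concentration required for complete inhibition of growth.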

What was measured:
Experiment in all cases: NCI anticancer screen, dose series, 48 h
[1] = system: SK-MEL-28 melanoma
[2] = system: SR leukemia
[3] = system: K-562 leukemia
[4] = system: RPMI-8226 leukemia
[5] = system: EKVX NSCLC
[6] = system: UACC-62 melanoma
[7] = system: 786-0 renal
[8] = system: OVCAR-3 ovarian
[9] = system: M14 melanoma
[10] = system: OVCAR-8 ovarian
[11] = system: SN12C renal
[12] = system: SW-620 colon
[13] = system: HCT-116 colon
[14] = system: SNB-75 CNS
[15] = system: CAKI-1 renal
[16] = system: HCC-2998 colon
[17] = system: HOP-92 NSCLC
[18] = system: MCF7 breast
[19] = system: MDA-N
[20] = system: A498 renal
[21] = system: OVCAR-5 ovarian
[22] = system: NCI-H460 lung
[23] = system: HS 578T breast
[24] = system: LOX IMVI melanoma
[25] = system: SF-268 CNS
[26] = system: BT-549 breast
[27] = system: NCI-H522 lung
[28] = system: MDA-MB-435
[29] = system: SK-MEL-2 melanoma
[30] = system: A549 NSCLC
[31] = system: UACC-257 melanoma
[32] = system: HL-60(TB) leukemia
[33] = system: SF-295 CNS
[34] = system: HCT-15 colon
[35] = system: NCI-H226 lung
[36] = system: RXF 393 renal
[37] = system: SF-539 CNS
[38] = system: CCRF-CEM leukemia
[39] = system: NCI-H23 lung
[40] = system: MOLT-4 leukemia
[41] = system: SK-MEL-5 melanoma
[42] = system: KM12 colon
[43] = system: HOP-62 NSCLC
[44] = system: SNB-19 CNS
[45] = system: ACHN renal
[46] = system: MALME-3M melanoma
[47] = system: COLO 205 colon
[48] = system: NCI/ADR-RES ovarian
[49] = system: OVCAR-4 ovarian
[50] = system: HT29 colon
[51] = system: IGROV1 ovarian
[52] = system: UO-31 renal
[53] = system: U251 CNS
[54] = system: PC-3 prostate
[55] = system: DU-145 prostate
[56] = system: SK-OV-3 ovarian
[57] = system: T-47D breast
[58] = system: TK-10 renal
[59] = system: MDA-MB-231 breast

With CCc1ccc2oc(=O)ccc2c1 the TGI [1] was over 100 µM, the TGI [2] was over 100 µM and the TGI [3] was over 100 µM. For the same compound, the TGI [4] was over 100 µM, the TGI [5] was over 100 µM and the TGI [6] was over 100 µM. It also gave a TGI [7] of over 100 µM, a TGI [8] of over 100 µM and a TGI [9] of over 100 µM. For the same compound, the TGI [10] was over 100 µM, the TGI [11] was over 100 µM and the TGI [12] was over 100 µM. The TGI [13] was over 100 µM, the TGI [14] was over 100 µM and the TGI [15] was over 100 µM. For the same compound, the TGI [16] was over 100 µM, the TGI [17] was over 100 µM and the TGI [18] was over 100 µM. It also gave a TGI [19] of over 100 µM, a TGI [20] of over 100 µM and a TGI [21] of over 100 µM. For the same compound, the TGI [22] was over 100 µM, the TGI [23] was over 100 µM and the TGI [24] was over 100 µM. For the same compound, the TGI [25] was over 100 µM, the TGI [26] was over 100 µM and the TGI [27] was over 100 µM. It also gave a TGI [28] of over 100 µM, a TGI [29] of over 100 µM and a TGI [30] of over 100 µM. It also gave a TGI [31] of over 100 µM, a TGI [32] of over 100 µM and a TGI [33] of over 100 µM. For the same compound, the TGI [34] was over 100 µM, the TGI [35] was over 100 µM and the TGI [36] was over 100 µM. It also gave a TGI [37] of over 100 µM, a TGI [38] of over 100 µM and a TGI [39] of over 100 µM. For the same compound, the TGI [40] was over 100 µM, the TGI [41] was over 100 µM and the TGI [42] was over 100 µM. For the same compound, the TGI [43] was over 100 µM, the TGI [44] was over 100 µM and the TGI [45] was over 100 µM. It also gave a TGI [46] of over 100 µM, a TGI [47] of over 100 µM and a TGI [48] of over 100 µM. The TGI [49] was over 100 µM, the TGI [50] was over 100 µM and the TGI [51] was over 100 µM. The TGI [52] was over 100 µM, the TGI [53] was over 100 µM and the TGI [54] was over 100 µM.
Work on COc1cccc2c1OC1c3ccccc3OCC1(O)C2 (configuration not stated) yielded a TGI [3] of over 100 µM, a TGI [4] of over 100 µM and a TGI [55] of over 100 µM. It also gave a TGI [5] of over 100 µM, a TGI [56] of over 100 µM and a TGI [6] of over 100 µM. For the same compound, the TGI [7] was over 100 µM, the TGI [8] was over 100 µM and the TGI [9] was over 100 µM. It also gave a TGI [10] of over 100 µM, a TGI [11] of over 100 µM and a TGI [12] of over 100 µM. It also gave a TGI [13] of over 100 µM, a TGI [14] of over 100 µM and a TGI [15] of over 100 µM. The TGI [16] was over 100 µM, the TGI [17] was over 100 µM and the TGI [18] was over 100 µM. It also gave a TGI [57] of over 100 µM, a TGI [19] of over 100 µM and a TGI [20] of over 100 µM. For the same compound, the TGI [21] was over 100 µM, the TGI [24] was over 100 µM and the TGI [25] was over 100 µM. It also gave a TGI [26] of over 100 µM, a TGI [58] of over 100 µM and a TGI [27] of over 100 µM. For the same compound, the TGI [28] was over 100 µM, the TGI [29] was over 100 µM and the TGI [30] was over 100 µM. For the same compound, the TGI [31] was over 100 µM, the TGI [33] was over 100 µM and the TGI [34] was over 100 µM. The TGI [35] was over 100 µM, the TGI [37] was over 100 µM and the TGI [38] was over 100 µM. The TGI [39] was over 100 µM, the TGI [40] was over 100 µM and the TGI [41] was over 100 µM. The TGI [42] was over 100 µM, the TGI [43] was over 100 µM and the TGI [45] was over 100 µM. The TGI [46] was over 100 µM, the TGI [47] was over 100 µM and the TGI [48] was over 100 µM. For the same compound, the TGI [49] was over 100 µM, the TGI [50] was over 100 µM and the TGI [51] was over 100 µM. It also gave a TGI [52] of over 100 µM, a TGI [53] of over 100 µM and a TGI [59] of over 100 µM. It also gave a TGI [54] of over 100 µM.
Cc1ccc(S(=O)(=O)n2cc([C@@]3(O)C[C@H](CSC#N)OC3=O)c3ccccc32)cc1 gave a GI50 [1] of 14 µM, a TGI [1] of 27.7 µM and a GI50 [2] of 0.41 µM. It also gave a TGI [2] of 4.76 µM, a GI50 [3] of 6.2 µM and a TGI [3] of 23.6 µM. It also gave a GI50 [4] of 2.75 µM, a TGI [4] of 40.1 µM and a GI50 [55] of 4.39 µM. It also gave a TGI [55] of 15.3 µM, a GI50 [5] of over 100 µM and a TGI [5] of over 100 µM. For the same compound, the GI50 [56] was 58.8 µM, the TGI [56] was over 100 µM and the GI50 [6] was 15 µM. For the same compound, the TGI [6] was 35.5 µM, the GI50 [7] was 12.7 µM and the TGI [7] was 26.5 µM. The GI50 [8] was 8.81 µM, the TGI [8] was 21 µM and the GI50 [9] was 7.94 µM. It also gave a TGI [9] of 35.9 µM, a GI50 [10] of 10.2 µM and a TGI [10] of 22.5 µM. The GI50 [11] was 7.97 µM, the TGI [11] was 24.9 µM and the GI50 [12] was 5.98 µM. The TGI [12] was 19.5 µM, the GI50 [13] was 5.07 µM and the TGI [13] was 17.7 µM. The GI50 [14] was 15.5 µM, the TGI [14] was 71 µM and the GI50 [15] was 0.0836 µM. It also gave a TGI [15] of 25.8 µM, a GI50 [16] of 27 µM and a TGI [16] of over 100 µM. For the same compound, the GI50 [17] was 23.9 µM, the TGI [17] was 71.3 µM and the GI50 [18] was 2.8 µM. It also gave a TGI [18] of 18.1 µM, a GI50 [57] of 12.8 µM and a TGI [57] of 32.5 µM. The GI50 [20] was 14.7 µM, the TGI [20] was 46.5 µM and the GI50 [21] was 13.2 µM. The TGI [21] was 28.2 µM, the GI50 [22] was 9.19 µM and the TGI [22] was 23.9 µM. It also gave a GI50 [23] of 8.7 µM, a TGI [23] of 32.6 µM and a GI50 [24] of 8.83 µM. It also gave a TGI [24] of 66.4 µM, a GI50 [25] of 5.1 µM and a TGI [25] of 19.7 µM. It also gave a GI50 [26] of 16.9 µM, a TGI [26] of 33.1 µM and a GI50 [58] of 16.3 µM. For the same compound, the TGI [58] was 37.8 µM, the GI50 [27] was 3.99 µM and the TGI [27] was 18.1 µM. It also gave a GI50 [28] of 6.78 µM, a TGI [28] of 24.6 µM and a GI50 [29] of 9.23 µM. For the same compound, the TGI [29] was 24.4 µM, the GI50 [30] was 29.2 µM and the TGI [30] was over 100 µM. It also gave a GI50 [31] of 10.9 µM, a TGI [31] of 56.4 µM and a GI50 [32] of 3.5 µM. For the same compound, the TGI [32] was 12.2 µM, the GI50 [33] was 16.1 µM and the TGI [33] was 69.2 µM. It also gave a GI50 [34] of 13.6 µM, a TGI [34] of 71.2 µM and a GI50 [35] of 16.8 µM. The TGI [35] was 32.6 µM, the GI50 [36] was 2.13 µM and the TGI [36] was 7.61 µM. For the same compound, the GI50 [37] was 4.57 µM, the TGI [37] was 16.2 µM and the GI50 [38] was 3.17 µM. It also gave a TGI [38] of 25.2 µM, a GI50 [39] of 26.5 µM and a TGI [39] of over 100 µM. It also gave a GI50 [40] of 1.71 µM, a TGI [40] of 4.52 µM and a GI50 [41] of 2.44 µM. It also gave a TGI [41] of 19.8 µM, a GI50 [42] of 4.65 µM and a TGI [42] of 23 µM. The GI50 [43] was 25.1 µM, the TGI [43] was 57.4 µM and the GI50 [44] was over 100 µM. It also gave a TGI [44] of over 100 µM, a GI50 [45] of 11.2 µM and a TGI [45] of 27.1 µM. For the same compound, the GI50 [46] was 12.1 µM, the TGI [46] was 35.2 µM and the GI50 [47] was 6.42 µM. It also gave a TGI [47] of 33.6 µM, a GI50 [48] of 13.5 µM and a TGI [48] of 38.8 µM. The GI50 [49] was 15.6 µM, the TGI [49] was 43.3 µM and the GI50 [50] was 11.9 µM. It also gave a TGI [50] of 55 µM, a GI50 [51] of 7.54 µM and a TGI [51] of 22.4 µM. For the same compound, the GI50 [52] was 4.62 µM, the TGI [52] was 19.3 µM and the GI50 [53] was 12.8 µM. For the same compound, the TGI [53] was 32.7 µM, the GI50 [59] was 8.44 µM and the TGI [59] was 22.4 µM. For the same compound, the GI50 [54] was 17.8 µM and the TGI [54] was 50.4 µM.
